In one data set the test system is PGE2. Put plainly: Inhibition of PGE2 formation in rabbit articular chondrocytes stimulated with IL-1β (RIA). Format: cell-based. The settings on record: for IC50: Oryctolagus cuniculus, Chondrocyte. The essentials: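 Confluent rabbit articular chondrocytes pre-treated 20 min with compounds, then stimulated with IL-1β (1 ng/ml final) for 48 h at 37° C. Supernatant nitrite measured by Griess-type assay (Green method) and PGE2 by RIA. IC50 is the micromolar concentration inhibiting nitrite or PGE2 formation by 50% versus IL-1β-stimulated untreated cells.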

In data set [1] the test system is rabbit articular chondrocytes. Description: Cellular toxicity on rabbit articular chondrocytes. To be noted: noted beside IN in Table 3. In kind it is cell-based. On the procedure:
a) The inhibitory activity on the formation of NO measured as NO2^− (nitrite) and PGE2 was studied in vitro on culture media of rabbit articular chondrocytes stimulated with the cytokine IL-1β (1 ng/ml) for 48 hours. For the preparation of the chondrocytes, the method described by Berenbaum et al. [FEBS Letters 340, 51-55 (1994)] was followed. Briefly, fragments of cartilage removed aseptically from the articular heads of rabbit shoulder, hip and knee were finely ground and digested at 37° C. in hyaluronidase, trypsin and collagenase solutions, giving, after filtration through sterile gauze and centrifugation at 600×g and suitable dilution with 10% DMEM-FCS 10%, a concentration per well of about 1×10^5 cells. The cells were maintained under these conditions until confluent (about 15 days), the medium being replaced every 3 days. At this point, the test products dissolved in the medium were added to each sample and, after 20 minutes, 350 μl of IL-1β were added, to give a final concentration of 1 ng/ml. The stimulation lasted 48 hours at 37° C. (incubation in air/7% CO2). A nitrite assay was subsequently performed on the cell supernatant, as described by Green et al. [Anal. Biochem. 126, 131-138 (1982)], and of PGE2 by RIA assay. The results obtained are shown in Table 3, in which is given, for a number of the compounds that are the subject of the invention and that are already illustrated in Table 1, the IC50, i.e. the concentration (micromolar) of antagonist capable of inhibiting the formation of nitrites and PGE2 by 50% relative to the control group, i.e. relative to the cells stimulated with IL-1β but without addition of antagonists.

The mark [2] stands for this setting: rabbit articular chondrocytes, IL-1β 1 ng/ml, 48 hours, RIA.
The mark [3] stands for this setting: rabbit articular chondrocytes, IL-1β 1 ng/ml, 48 hours, RIA, read-out: Inhibition % IC50 PGE2.

Each structure is given as a SMILES string. Where two headings read alike, the source gives them in different places.

Compound `CC(=N)Nc1ccc2c(c1)cc(-c1ccccc1)n2C` [Compound 6, N-(1-methyl-2-phenyl-1H-indol-5-yl)acetamidine] had a melting point of 184.6 to 185.8 °C. In the data set on PGE2 (setting [2]), the “Inhibition % IC50 PGE2” value is recorded as “IN (IN = <25% inhibitory activity at 30 × 10^−6M)”. In addition, the “Tox = cellular toxicity (concentration)” value in data set [1] stood at 30 µM.

`COc1ccccc1-c1nc2cc(NC(C)=N)ccc2s1` [Compound 10, N-[2-(2-methoxyphenyl)benzothiazol-5-yl]acetamidine] had a melting point of 163 to 165 °C. Further, the IC50 with PGE2 (setting [3]) was determined as 5900 nM. Moreover, in data set [1], the “Tox = cellular toxicity (concentration)” value was 100 µM.

Compound `COc1ccc(-c2nc3cc(NC(C)=N)ccc3s2)cc1` [Compound 15, N-[2-(4-methoxyphenyl)benzothiazol-5-yl]acetamidine] had a melting point of 203 to 204.7 °C. Also, the half-inhibitory concentration (IC50) in the data set with PGE2 (setting [3]) amounted to 7400 nM. In addition, in data set [1], the “Tox = cellular toxicity (concentration)” value is 30 µM.

In turn, `COc1ccc(-c2nc3cc(NC(C)=N)ccc3s2)c(OC)c1` [Compound 16, N-[2-(2,4-dimethoxyphenyl)benzothiazol-5-yl]acetamidine] displayed a melting point of 156.4 to 158.3 °C. Besides, in the data set on PGE2 (setting [2]), the “Inhibition % IC50 PGE2” value is listed as “IN (IN = <25% inhibitory activity at 30 × 10^−6M)”. Besides, the “Tox = cellular toxicity (concentration)” value in data set [1] turned out to be 30 µM.

For the compound `COc1cccc(-c2nc3cc(NC(C)=N)ccc3s2)c1` [Compound 17, N-[2-(3-methoxyphenyl)benzothiazol-5-yl]acetamidine], the melting point fell in the range of 141.6 to 145.6 °C. The IC50 in the data set with PGE2 (setting [3]) came to 1300 nM. The “Tox = cellular toxicity (concentration)” value in data set [1] is 30 µM.

Consider `CC(=N)Nc1ccc2oc(-c3ccc(Cl)cc3)nc2c1` [Compound 30, N-[2-(4-chlorophenyl)benzoxazol-5-yl]acetamidine], for which the melting point lay in the range of 183.6 to 185.1 °C. In the data set on PGE2 (rabbit articular chondrocytes stimulated with IL-1β, read-out: IC50, formation of PGE2), the IC50 was in the range of 300 to 800 nM. In the data set with PGE2 (setting [3]), the concentration for half-maximal inhibition (IC50) was found to be 300 nM. For the same compound, the “Tox = cellular toxicity (concentration)” value in data set [1] is 30 µM.

The melting point is the temperature of the solid-liquid transition. By IC50 is commonly meant the midpoint of a concentration-inhibition curve.

Values taken from patent US20050197331A1, “Novel anti-inflammatory and analgesic heterocyclic amidines that inhibit nitrogen oxide (NO) production” (ROTTAPHARM SPA, priority 2004, published 2005).
